# From patent US11000501B2, “Composition for preventing or treating neurological and mental disorders, containing syringaresinol” (SEOUL NATIONAL UNIVERSITY R&DB FOUNDATION, priority 2016, dated 2021)
# System: Schaffer collateral (SC)-CA1 synapse of the hippocampus
# Assay: fEPSP recording in hippocampal SC-CA1 synapse (hippocampal slices)
# Format: cell-based, mouse
# Settings: 10 μM, applied after SYR
# Method: A hippocampus slice (400 μm thick) was prepared in a cold dissection buffer using a vibrating machine (Vibratome, Leica, Germany) and then a CA3 region of each slice was removed surgically immediately after the slice formation. In this connection, the cold dissection buffer contained sucrose 230 mM; NaHCO3 25 mM; KCl 2.5 mM; NaH2PO4 1.25 mM; D-glucose 10 mM; Na-ascorbic acid salt 1.3 mM; MgCl2 3 mM; CaCl2 0.5 mM, 95% O2/5% CO2 and had pH 7.4. The slice was recovered in a normal ACSF (artificial cerebrospinal fluid) for 1 hour and then maintained at room temperature (23 to 25° C.) until recording. […] All electrophysiological experiments were performed in a recording chamber while the samples were immersed in the solution in a manner described previously (Song et al., 2017). Signals were amplified using a MultiClamp 700B amplifier (Molecular Devices, CA, USA) at a cut-off frequency of 2.8 kHz and were measured with a Digidata 1440A interface (Molecular Devices) at a 10 kHz sampling frequency. Data were collected using pClamp 10.2 (Molecular Devices) software. The collected data were analyzed with a program created in the lab using Igor Pro (WaveMetrics, OR, USA). To record the field excitatory post-synaptic potential (fEPSP) in the hippocampal SC-CA1 synapse, hippocampal slices were placed in the recording chamber and perfused with ACSF while oxygen was fed continuously to the ACSF. The ACSF was maintained at a temperature of 29 to 30° C. using a heater for perfusion (SH-27B, Warner Instruments, CT, USA). A synapse response was induced by stimulation with a glass pipette (0.3 to 0.5 Mohm) every 20 seconds (0.05 Hz). The synapse response was recorded using a glass pipette (3 to 4 Mohm) filled with ACSF. The intensity of the stimulus was adjusted to produce a synapse response of about ⅓ of the maximum value thereof. The slices with unstable (10%) baseline records were excluded. To investigate the effect of syringaresinol (SYR) on the synaptic transmission, the field excitatory post-synaptic potential (fEPSP) of the Schaffer collateral (SC)-CA1 synapse of the hippocampus of adult mice (4 to 6 weeks of age) was measured. After confirming the stable baseline, different concentrations of SYR were applied thereto using the perfusion solution.
smiles,measurement,value
"NS(=O)(=O)c1cccc2c1c([N+](=O)[O-])cc1nc(O)c(O)nc12 [NBQX, reference compound]",block of the synaptic response (fEPSP),completely blocked
